From US20040109897A1, “Free flowing solid antimicrobial composition” (priority 2002, published 2004)

Key:
[1] = Free flow preservation (caking) of OPA formulations on exposure to temperature and humidity; type: physicochemical; details: for Caking tendency: 0 wt. % of anti-caking agent; for Time to caking: untreated
Description: Samples of OPA containing 0.01-0.1% water were ground and mixed with various additives at levels of 0.2% to 5%. The samples were mixed on high-speed rollers for one hour followed by exposure to various temperatures and levels of humidity. The samples were examined at various time intervals for flow properties. Complete caking was defined as all sample stuck together in one solid block. For ease of interpretation and comparison, the following notation was used: 1) Formulations that caked in under two weeks were assigned one star (*); 2). Formulations that caked in two to four weeks were assigned two stars; 3) Formulations that caked in four to eight weeks were assigned three stars; 4) Formulations stable (flowable) over eight weeks were assigned four stars.

[2] = Flowability of OPA after one hour on high-speed rollers; type: physicochemical; details: granular OPA in capped 100 ml jar, no additive
Protocol: Ortho-phthalic aldehyde (13.04 g, granular) was placed in a 100 ml jar. The jar was tightly capped and placed on high-speed rollers for one hour. […] The lid was removed and the sample was placed in a humidity oven set at 40° C. and 90% RH (relative humidity). After 4 hours of exposure the sample had no flow.
Ortho-phthalic aldehyde (10.04 g, granular) was placed in a 100 ml jar. The jar was tightly capped and placed on high-speed rollers for one hour. […] The lid was removed and the sample was placed in a humidity oven set at 30° C. and 90% RH (relative humidity).
Ortho-phthalic addehyde (12.04 g, granular) was placed in a 100 ml jar. The jar was tightly capped and placed on high-speed rollers for one hour. […] The lid was removed and the sample was placed in a humidity oven set at 40° C. and 70% RH (relative humidity).

- Time to caking ([1]; 30° C. and 90% RH): one day
- Time to caking ([1]; 40° C. and 90% RH): half a day
- Flow after exposure ([1]; 4 hours at 40° C. and 70% RH): no free flow
- Flow after exposure ([1]; 4 hours at 40° C. and 90% RH): no flow
- Flow after exposure ([1]; 24 hours at 30° C. and 90% RH): no free flow
- Flowability after one hour on high-speed rollers [2]: very poor flowability
SMILES: O=Cc1ccccc1C=O [Control, ortho-phthalic aldehyde]
- Caking tendency ([1]; 22.5° C. and 65% RH): * (Formulations that caked in under two weeks were assigned one star (*))
- Caking tendency ([1]; 30° C. and 90% RH): * (Formulations that caked in under two weeks were assigned one star (*))
- Caking tendency ([1]; 40° C. and 70% RH): * (Formulations that caked in under two weeks were assigned one star (*))
- Caking tendency ([1]; 40° C. and 90% RH): * (Formulations that caked in under two weeks were assigned one star (*))
